One may read the Ki as a measure of affinity in units of concentration, obtained from inhibition or displacement. As a reminder, the EC50 is the concentration at which the effect is half-maximal. The low end stands for higher potency in that assay, the high end for lower potency in that assay. The term IC50 denotes the concentration that gives 50% inhibition. What is called melting point is the temperature of the solid-liquid transition. A word on the Emax: it is the maximal effect, on the per cent scale that the assay sets.

For data set [1], the target named is T1, oxytocin receptor (OXTR), hOTR (Homo sapiens, UniProt P30559).
T1 construct: expressed in transfected cells
T1 sequence (P30559 1-389): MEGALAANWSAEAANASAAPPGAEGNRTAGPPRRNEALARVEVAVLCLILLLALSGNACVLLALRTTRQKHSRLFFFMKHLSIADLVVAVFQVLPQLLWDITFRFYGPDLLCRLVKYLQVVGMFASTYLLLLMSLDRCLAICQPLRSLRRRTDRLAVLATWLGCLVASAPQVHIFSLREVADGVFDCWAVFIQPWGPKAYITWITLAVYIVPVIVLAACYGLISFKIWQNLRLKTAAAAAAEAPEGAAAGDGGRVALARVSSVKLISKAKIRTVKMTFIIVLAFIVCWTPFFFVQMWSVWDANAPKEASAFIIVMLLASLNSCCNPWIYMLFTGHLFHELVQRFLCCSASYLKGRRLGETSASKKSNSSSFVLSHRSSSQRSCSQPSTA
Description: Competition radioligand binding, [3H]-oxytocin, OTR-expressing HEK293 membranes. To be noted: [3H]-oxytocin 10 nM, 90 min 4 °C. As for the experimental part:
(§1) Human embryonic kidney cells (HEK-293) transfected to stably express untagged hOTR and V1aR using the Flp-In™ T-REx™ system (Life Technologies, Carlsbad, Calif. USA) were established as reported in Jorgensen et al., 2016 (the entire disclosure of which is hereby incorporated by reference). Cells were subsequently maintained in 10% DMEM containing hygromycin (80 μg/ml), penicillin (100 U/ml), streptomycin (0.1 mg/ml) and blasticidine S hydrochloride (15 μg/ml).
(§2) To induce receptor expression, cells were incubated with tetracycline (2 μg/mL) for 48 h. PBS with 5 mM EDTA (pH 7.4) was used to detach OTR and V1aR-expressing HEK293 cells from culture flasks. Harvested cells were centrifuged at 1200 g for 5 min and were resuspended in homogenization buffer (50 mM HEPES, 5 mM EDTA, 5 mM MgCl2; pH 7.4) prior to homogenization using an Ultra-Turrax homogeniser (IKA, Wilmington, N.C., USA). Homogenates were centrifuged three times for 30 min at 48.000 g, 4° C. for 30 min and membrane pellets resuspended in 50 mM Tris HCl, 5 mM MgCl2 (pH 7.4). A bicinchoninic acid assay was used according to the manufacturer's protocol (Bio-Rad, Hercules. Calif., USA) to measure final protein concentration. Membranes were stored at −80° C. until use in competition radioligand binding studies.
(§3) Reactions were incubated for 90 min at 4° C. to reach equilibrium, and terminated by rapid filtration over glass fibre filters (Whatman GF/A […]; Millipore, Darmstadt, Germany), and washing with ice-cold reaction buffer. Filters were dried, then incubated with Microscint 0 (Perkin Elmer) for 30 min before radioactivity was detected with a Microbeta2 2450 microplate-reader (Perkin Elmer). […] Specific binding in the presence of compounds was expressed as a percentage of specific binding in the presence of vehicle control. A sum-of-squares F-test was used to compare the goodness of fit of one-site, two-site and sigmoidal with variable hill slope binding models, and to calculate Ki's using Graphpad Prism (Graphpad Software, La Jolla, Calif., USA).

The target in data set [2] is T2, vasopressin 1a receptor (V1aR) (Homo sapiens, UniProt P37288).
T2 construct: expressed in transfected cells
Kind of data set: Competition radioligand binding, [3H]-vasopressin, V1aR-expressing HEK293 membranes. Particulars: [3H]-vasopressin 2 nM, 90 min 4 °C. As for the experimental part: as §1, §2, §3

Data set [3] addresses T1, oxytocin receptor (OXTR), hOTR. Kind of data set: IP1 accumulation assay, OTR-expressing HEK-293 cells (agonist and antagonist assessment). It is filed as cell-based. Particulars: for EC50: IP1, 1 h; for IC50: antagonist assessment vs OT 30 nM (~EC70); for OV function: ratio of OXTR functional potency to V1aR functional potency, 'OT only' = function at OXTR only; for Emax: HEK293, read-out: OXTR Emax (% OXT). The protocol:
as §1
(§4) OTR or V1aR-expressing HEK-293 cells were seeded onto poly-L-lysine (100 μg/ml)-coated 384-well plates at a density of 8.75×10^3 cells per well. Cells were incubated in tetracycline (2 μg/mL) for 48 h to induce receptor expression. Intracellular IP1 levels induced by activation of the Gq protein coupled to the OTR and V1aR was indexed using the HTRF IP-One kit (CisBio International, Bedford, Mass., USA), according to manufacturer's protocol. For agonist assessment, cells were incubated with logarithmically-spaced concentrations of compounds (1 nM-100 μM) for 1 h prior to the addition of Ab-Cryptate and IP1-d2 for 1 h. The contents of each well were transferred to a white-walled proxy plate (Perkin Elmer) and fluorescence read using a Pherastar Microplate reader (BMG Labtech, Cary, N.C., USA). For antagonist assessment, cells were incubated an ˜EC70 concentration of OT (30 nM) or AVP (25 nM) mixed with compounds (1 nM-100 μM) or vehicle control for 1 h. IP1 levels in the presence of compounds and OT or AVP were expressed as a percentage of levels seen with OT or AVP in the presence of vehicle control. Concentration response curves for OT and AVP were determined after 5 min incubation in drug or vehicle, and the data fitted using GraphPad PRISM to a 4-parameter logistic equation of the form y=Min+(Max−Min)/(1+10^((logEC50−X)*n)) where X is drug concentration and n is the H-ill slope. Data represent the mean±s.d. of at least 3 independent experiments, each in duplicate.

The target in data set [4] is T2, vasopressin 1a receptor (V1aR). Description: IP1 accumulation assay, V1aR-expressing HEK-293 cells (agonist and antagonist assessment). The data set is classed as cell-based. Particulars: for EC50: agonist assessment, IP1, 1 h; for IC50: antagonist assessment vs AVP 25 nM (~EC70), IP1. The protocol: Cells were subsequently maintained in 10% DMEM containing hygromycin (80 μg/ml), penicillin (100 U/ml), streptomycin (0.1 mg/ml) and blasticidine S hydrochloride (15 μg/ml).
as §4, with “Cells” for “OTR or V1aR-expressing HEK-293 cells were seeded onto poly-L-lysine (100 μg/ml)-coated 384-well plates at a density of 8.75×10^3 cells per well. Cells”, “For antagonist assessment, cells were incubated an ˜EC70 concentration of OT (30 nM) or AVP (25 nM) mixed with compounds (1 nM-100 μM) or vehicle control for 1 h.” left out

T2 sequence (P37288 whole entry): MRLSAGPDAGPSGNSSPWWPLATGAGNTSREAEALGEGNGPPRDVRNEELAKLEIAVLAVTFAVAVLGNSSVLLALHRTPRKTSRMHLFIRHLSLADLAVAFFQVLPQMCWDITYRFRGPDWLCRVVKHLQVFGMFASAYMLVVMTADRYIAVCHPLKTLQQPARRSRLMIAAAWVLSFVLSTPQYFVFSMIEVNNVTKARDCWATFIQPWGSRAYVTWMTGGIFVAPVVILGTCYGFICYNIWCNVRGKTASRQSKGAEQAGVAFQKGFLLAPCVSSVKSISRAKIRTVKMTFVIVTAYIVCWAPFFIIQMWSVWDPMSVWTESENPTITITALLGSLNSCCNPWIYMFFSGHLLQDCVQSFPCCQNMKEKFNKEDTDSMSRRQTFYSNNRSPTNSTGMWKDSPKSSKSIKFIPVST

With `Cn1ncc2c1Nc1ccccc1N(C(=O)c1ccc(OCc3ccccc3)cc1)C2` [BzE, (4-(benzyloxy)phenyl)(1-methyl-4,10-dihydrobenzo[b]pyrazolo[3,4-e][1,4]diazepin-5 (1H)-yl)methanone], the melting point fell in the range of 207 to 209 °C. Further, the Ki in data set [1] was found to be 0.176 ± 0.041 µM. The compound further came in with a Ki in data set [2] of 0.035 ± 0.005 µM. Further, in data set [3] (agonist assessment), the EC50 is above 10 µM. Moreover, the IC50 in data set [3] (IP1) was 0.179 µM. In addition, the OV function in data set [3] is listed as 0.11. Besides, in data set [4], the EC50 is above 10 µM and the IC50 amounted to 1.59 ± 0.486 µM.
In the case of `Cn1ncc2c1Nc1ccccc1N(C(=O)C1CC1)C2` [CA3 (KA), cyclopropyl(1-methyl-4,10-dihydrobenzo[b]pyrazolo[3,4-e][1,4]diazepin-5 (1H)-yl)methanone], the melting point is 207 to 209 °C. For the same compound, in data set [1], the Ki was above 10 µM. Further, the inhibitory constant (Ki) in data set [2] was found to be 3.37 ± 0.74 µM. The EC50 in data set [3] (agonist assessment) is above 10 µM. Moreover, the IC50 in data set [3] (IP1) was above 10 µM. In data set [4], this compound yielded an EC50 above 10 µM and an IC50 above 10 µM.
Regarding `Cn1ncc2c1Nc1ccccc1N(C(=O)C1CCCC1)C2` [CAS (KA), cyclopentyl(1-methyl-4,10-dihydrobenzo[b]pyrazolo[3,4-e][1,4]diazepin-5 (1H)-yl)methanone], the melting point is above 300 °C. This compound registered a Ki in data set [1] above 10 µM. Moreover, the inhibitory constant (Ki) in data set [2] came to 0.553 ± 0.067 µM. Moreover, in data set [3], the Emax was determined as 10% and the OV function is recorded as below 0.33. This compound also came in with an EC50 in data set [3] (agonist assessment) of 3.39 ± 0.448 µM. In data set [4], this compound registered an EC50 above 10 µM and an IC50 above 10 µM.
As for `CCc1ccc(C(=O)N2Cc3cnn(C)c3Nc3ccccc32)cc1` [TRGA99, (4-ethylphenyl)(1-methyl-4,10-dihydrobenzo[b]pyrazolo[3,4-e][1,4]diazepin-5 (1H)-yl)methanone], the Ki came to 0.022 ± 0.008 µM in data set [1] and 0.0018 ± 0.0006 µM in data set [2]. Further, the Emax in data set [3] was 8%. For the same compound, the EC50 is 0.041 ± 0.015 µM in data set [3] (agonist assessment) and above 10 µM in data set [4]. For the same compound, the OV function in data set [3] was 0.02. In data set [4], this compound yielded an IC50 of 1.65 ± 0.075 µM.
Consider `Cn1ncc2c1Nc1ccccc1N(C(=O)C1C(C)(C)C1(C)C)C2` [TRGA111, (1-methyl-4,10-dihydrobenzo[b]pyrazolo[3,4-e][1,4]diazepin-5 (1H)-yl)(2,2,3,3-tetramethylcyclopropyl)methanone], for which the Ki in data set [1] and in data set [2] was above 10 µM in each case. In addition, the EC50 in data set [3] (agonist assessment) and in data set [4] was above 10 µM throughout. In addition, the IC50 in data set [3] (IP1) and in data set [4] was above 10 µM throughout.
For `Cn1ncc2c1Nc1ccccc1N(C(=O)c1cc(O)cc(O)c1)C2` [WJ0623, (3,5-Dihydroxyphenyl)(1-methyl-4,10-dihydrobenzo[b]pyrazolo[3,4-e][1,4]diazepin-5 (1H)-yl)methanone], the melting point was above 300 °C. The compound further displayed a Ki in data set [1] of 0.0926 ± 0.01 µM. The same compound displayed an inhibitory constant (Ki) in data set [2] of 0.0046 ± 0.0013 µM. Also, the EC50 in data set [3] (agonist assessment) was above 10 µM. In addition, in data set [3] (IP1), the IC50 turned out to be 1.76 µM. For the same compound, in data set [3], the OV function came to 8.59. In data set [4], this compound displayed an EC50 above 10 µM and a half-inhibitory concentration (IC50) of 0.205 ± 0.0576 µM.
`COc1cc(CN2Cc3cnn(C)c3Nc3ccccc32)cc(OC)c1` [WJ0625, 5-(3,5-Dimethoxybenzyl)-1-methyl-1,4,5,10-tetrahydrobenzo[b]pyrazolo[3,4-e][1,4]diazepine] yielded a melting point of 210 to 212 °C. In addition, the Ki in data set [1] was above 10 µM. This compound came in with a Ki in data set [2] above 10 µM. Besides, the EC50 in data set [3] (agonist assessment) is above 10 µM. The IC50 in data set [3] (IP1) is above 10 µM. In addition, in data set [4], the EC50 was above 10 µM and the IC50 was above 10 µM.
In turn, `Cn1ncc2c1Nc1ccccc1N(Cc1cc(O)cc(O)c1)C2` [WJ0627, 5-((1-Methyl-4,10-dihydrobenzo[b]pyrazolo[3,4-e][1,4]diazepin-5(1H)-yl)methyl)benzene-1,3-diol] showed a melting point of 236 to 238 °C. In addition, the Ki in data set [1] is above 10 µM. In data set [2], this compound displayed an inhibitory constant (Ki) above 10 µM. The compound also had an EC50 in data set [3] (agonist assessment) above 10 µM. Also, the IC50 in data set [3] (IP1) is above 10 µM. In data set [4], this compound returned an EC50 above 10 µM and an IC50 above 10 µM.
Take `COc1cc(OC)cc(C(=O)N2Cc3cnn(C)c3Nc3ccccc32)c1` [WJ0629, (3,5-Dimethoxyphenyl)(1-methyl-4,10-dihydrobenzo[b]pyrazolo[3,4-e][1,4]diazepin-5 (1H)-yl)methanone]: the melting point is 279 to 281 °C (dec.). Besides, in data set [1], the Ki was found to be 0.316 ± 0.0792 µM. The compound also returned a Ki in data set [2] of 0.0129 ± 0.0015 µM. The compound further returned an EC50 in data set [3] (agonist assessment) above 10 µM. In data set [3] (IP1), this compound displayed an IC50 of 1.77 µM. Further, the OV function in data set [3] was determined as 18.63. In data set [4], this compound gave a half-maximal effective concentration (EC50) above 10 µM and an IC50 of 0.0948 ± 0.0077 µM.
In data set [1], `Cc1cc(C(=O)N2Cc3cnn(C)c3Nc3ccccc32)ccc1CN` [WJ0761] gave a Ki above 10 µM. This compound also yielded a Ki in data set [2] of 0.0447 ± 0.005 µM. Further, in data set [3], the Emax was 8% and the OV function was below 0.92. The compound further came in with a concentration giving a half-maximal response (EC50) in data set [3] (agonist assessment) of 9.19 ± 1.62 µM. Also, in data set [4], the EC50 is above 10 µM and the IC50 was above 10 µM.
On to `Cn1ncc2c1Nc1ccccc1N(C(=O)c1ccc(Cl)c(Cl)c1)C2` [WJ0824, (3,4-Dichlorophenyl)(1-methyl-4,10-dihydrobenzo[b]pyrazolo[3,4-e][1,4]diazepin-5 (1H)-yl)methanone], for which the results for the Ki in data set [1] and in data set [2] were 1.62 ± 0.243 µM and 0.455 ± 0.112 µM, respectively. In addition, the Emax in data set [3] was found to be 12.9%. Also, the “EC50 (OXTR agonist potency, mean ± s.d.)” value in data set [3] (agonist assessment, IP1) turned out to be 0.3218 µM. In addition, the EC50 in data set [3] (agonist assessment) is 0.438 ± 0.127 µM; in data set [4], above 10 µM. The IC50 in data set [4] is above 10 µM.

For the origin of these results see patent US11491165B2 (Kinoxis Therapeutics Pty Ltd, priority 2016, dated 2022).
